Experimental findings from article PMC9706920, “Aryloxypropanolamine targets amyloid aggregates and reverses Alzheimer-like phenotypes in Alzheimer mouse models” (Alzheimer's Research & Therapy, 2022) are described below.

SMILES strings stand for the structures.

The nature of one data set: BBB-PAMPA. The note with it: PAMPA, pH 7.4. Type of data set: in vitro ADME. As to the method: Commercially available Double-Sink PAMPA (Pion® Double sink) assay was performed using a two compartment 96-well microtiter plate and protocols specified by the manufacturer. […] Stock solutions of controls and YIAD002 were dissolved in DMSO (10 mM) and subsequently diluted to 200-fold in pION buffer (pH 7.4) to 50 μM. The donor plate of the PAMPA sandwich was loaded with 50 μM solutions, and after wetting the artificial membrane with BBB lipid solution, the acceptor plate was loaded with acceptor sink buffer. Then, the acceptor plate was placed on the donor plate and incubated at 25°C for 4 h. Compound concentration in the reference, donor, and acceptor plates were measured on a UV plate.
Background: The PAMPA barrier holds no transporters, so it reflects passive diffusion.

A further data set has as its target T1, Aβ(1–42) aggregates (Homo sapiens, UniProt P05067).
T1 construct: made in house; host or cells: chemical synthesis (Fmoc solid phase peptide synthesis)
The data set can be described thus: ThT fluorescence Aβ(1–42) disaggregation assay. In kind it is biochemical. To be noted: for Decrease of fibrillar Aβ(1–42) aggregates (ThT fluorescence): Aβ(1–42) 25 μM pre-aggregated 37°C 3 days, compound added for additional 3 days, concentration of the printed value not stated; for EC50: pre-aggregated Aβ(1–42) 25 μM, 3 + 3 days, 37°C. As to the method: (§1) ThT fluorescence was used to assess the in vitro inhibition of Aβ(1–42) and disaggregation of Aβ(1–42), Aβ(1–40), Aβ(pE3-42), recombinant tau K18, and tau repeats R1, R2, R3, R4 by YIAD compounds. In house synthetic Aβ(1–42) was dissolved in DMSO (1 mM, 100% DMSO) and diluted to 20-fold in deionized water to make 50 μM Aβ(1–42) stocks (5% DMSO). YIAD compounds were first dissolved in DMSO (100 mM, 100% DMSO) and serially diluted with deionized water to make YIAD stocks with concentrations of 1, 10, 100, and 1000 μM (10% DMSO). For the Aβ(1–42) inhibition assay, monomeric Aβ(1–42) stocks and YIAD stocks were co-incubated at 37°C for 3 days. For Aβ(1–42) disaggregation assay, monomeric Aβ(1–42) stocks were preincubated at 37°C for three days to form Aβ(1–42) aggregates, and subsequently, YIAD stocks were added for an additional 3 days. For Aβ(1-40) disaggregation assays, Aβ(1–40) (50 μM, 5% DMSO) was preincubated at 37°C for 3 days to induce aggregation, and co-incubated with YIAD001 and YIAD002 for an additional 3 days. For Aβ(pE3-42) disaggregation assays, in house synthetic Aβ(pE3-42) (50 μM, 5% DMSO) was preincubated at 37°C for 1 day and co-incubated with YIAD002 for an additional 3 days. For tau K18 disaggregation assay, recombinant tau K18 fragments (35 μM) were dissolved in PBS with 0.1 mg/mL of heparin and 100 μM of DTT, then pre-aggregated at 37°C for 3 days. Then, YIAD stocks were added to aggregated K18 fragments for an additional 3 days. For tau repeat disaggregation assays, tau repeats (R1, R2, R3, R4) (35 μM) were dissolved in PBS with 0.1 mg/mL of heparin and 100 μM of DTT, then pre-aggregated at 37°C for 1 day. Then, YIAD002 was added to aggregated repeats for an additional 3 days. Prior to fluorescence intensity measurement, ThT solution (5 μM) was prepared by dissolving ThT, purchased from Sigma-Aldrich (MO, USA) in 50 mM glycine buffer (pH 8.5). To quantify the effect of inhibition and disaggregation, 25 μL of all samples and 75 μL of ThT solution were loaded into a half-area 96-well black plate in triplicate.

Another data set deals with T2, Aβ(1–42) (Homo sapiens, UniProt P05067).
T2 construct: Synthesized monomeric Aβ(1–42), […]; […]; IA; made in house; host or cells: chemical synthesis (Fmoc solid phase peptide synthesis)
T2 sequence (P05067 672-713 limits assumed): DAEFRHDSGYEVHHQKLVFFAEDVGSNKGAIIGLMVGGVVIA
As to the kind of experiment: ThT fluorescence Aβ(1–42) aggregation inhibition assay. Type of data set: biochemical. To be noted: for Inhibition of Aβ(1–42) fibrillation (ThT fluorescence): compounds at 0.5, 5, 50, 500 μM co-incubated with monomeric Aβ(1–42) 25 μM, 37°C, 3 days, concentration of the printed value not stated. As for the experimental part: as §1

A further data set has as its system 5XFAD mice. As to the kind of experiment: 6E10 immunohistochemical staining of amyloid plaques in 5XFAD mice after oral administration. The note with it: 50 mg/kg/day via drinking water, 5 weeks, 4.5-month-old female 5XFAD mice, vs vehicle. In kind it is in vivo, mouse. As for the experimental part: To test the in vivo efficacy of YIAD001 and YIAD002, female 5XFAD mice (n = 25) and female wildtype mice (n = 7) were assessed at the age of 4.5 months. YIAD compounds were dissolved in DMSO and diluted in drinking water to a final concentration of 50 mg/kg/day (5% DMSO, 5% Tween) for oral administration. The three compounds, YIAD001, YIAD002, and YIAD003, were freely administered via drinking water to 4.5-month-old 5XFAD mice (n = 6 for each group) for 5 weeks. As a control, 5% DMSO, 5% Tween in drinking water was provided ad libitum to littermate 5XFAD mice (n = 7) and wildtype mice (n = 7) for 5 weeks.
After the administration period, the mice were deeply anaesthetized with 4% avertin through intraperitoneal injection and transcardially perfused with 0.9% saline. Subsequently, the mice were sacrificed for brain excision. Each collected brain was divided through the mid-sagittal section; the hippocampal and cortical regions were dissected from one half and stored at −80°C for subsequent brain lysates, while the other half was immersed in 4% paraformaldehyde (pH 7.4) for 24 h and 30% sucrose for 48 h at 4°C and subsequently deep-froze at −80°C for immunohistochemistry.
Coronal hippocampal sections of 5XFAD mice brains (35 μm) were cut with a Cryostat (Leica, CM1860) and mounted onto glass slides. Antigen retrieval was performed by submerging slides in 1% SDS and unspecific binding was blocked through incubation in 20% horse serum in PBS for 1 h at RT. Aβ deposits were visualized through immunolabeling by anti-6E10 antibody (1:200 in PBS with 5% horse serum, Biolegend 803003) and detection by fluorescent secondary antibody (1:200 in PBS, IgG Alexa 488). Brain sections were additionally stained with Hoechst 33342. Fluorescent images of the brain sections were taken on a Leica DM2500 fluorescence microscope. Amyloid plaques were quantified using Image-J software (NIH).

T1 sequence (P05067 672-713 limits assumed): as above

Take `CC(=O)[C@H]1CC[C@H]2[C@@H]3CCC4=CC(=O)CC[C@]4(C)[C@H]3CC[C@]12C` [progesterone, reference compound]: in the data set “BBB-PAMPA”, the Papp at 4 h, 50 μM worked out at 50.9 ×10⁻⁶ cm/s.
With `CC(C)(C)c1ccc(OCC(O)CN2CCCC2)cc1.Cl` (stereo not shown) [YIAD010, 1-(3-(4-(Tert-butyl)phenoxy)-2-hydroxypropyl)pyrrolidin-1-ium chloride], the melting point fell in the range of 139.9 to 140.4 °C. Also, at Aβ(1–42) aggregates, the “Decrease of fibrillar Aβ(1–42) aggregates (ThT fluorescence)” value was found to be 83.56% and the 50% effective concentration (EC50) worked out at 138 µM. Moreover, on Aβ(1–42), the “Inhibition of Aβ(1–42) fibrillation (ThT fluorescence)” value came to 75.96%.
`CC(C)(C)c1ccc(OCC(O)CN2CCCCC2)cc1.Cl` (stereo not shown) [YIAD008, 1-(3-(4-(Tert-butyl)phenoxy)-2-hydroxypropyl)piperidin-1-ium chloride] showed a melting point of 201.7 to 202.2 °C. For the same compound, on Aβ(1–42) aggregates, the “Decrease of fibrillar Aβ(1–42) aggregates (ThT fluorescence)” value is recorded as 59.89% and the EC50 came out at 360 µM. The “Inhibition of Aβ(1–42) fibrillation (ThT fluorescence)” value on Aβ(1–42) is recorded as 70.69%.
Consider `Cl.OC(COc1ccc(Br)cc1)CN1CCCCC1` (stereo not shown), for which the melting point was 178.1 to 178.6 °C.
`CC(C)(C)c1ccc(OCC(O)CN2CCOCC2)cc1.Cl` (stereo not shown) displayed a melting point of 197.9 to 198.3 °C.
Compound `Cl.OC(COc1ccc(Br)cc1)CN1CCCC1` (stereo not shown) returned a melting point of 176.9 to 177.7 °C.
In turn, `COc1ccc(OCC(O)CN2CCCCC2)cc1.Cl` (stereo not shown) showed a melting point of 169.3 to 169.9 °C.
On to `Cl.OC(COc1ccc(Br)cc1)CN1CCOCC1` (stereo not shown), for which the melting point fell in the range of 172.1 to 172.7 °C.
In the case of `COc1ccc(OCC(O)CN2CCOCC2)cc1.Cl` (stereo not shown) [YIAD003, 4-(2-Hydroxy-3-(4-methoxyphenoxy)propyl)morpholin-4-ium chloride], the melting point lay within 160.2 to 160.5 °C. Further, in the data set with 5XFAD mice, the “Number of 6E10-stained plaques” value is reported as “did not cause any change” and the Plaque area entry is “slight tendency of an increase”. Besides, the “Activity in anti-Aβ screen” value at Aβ(1–42) (inhibitory interaction with Aβ(1–42) aggregation) is “inactive”.
For `CNC(=C[N+](=O)[O-])NCCSCc1ccc(CN(C)C)o1` [ranitidine, reference compound], in the data set “BBB-PAMPA” (4 h, 50 μM), the “Effective permeability coefficient Pe” value was 0 10^−6 cm/s.

Broadly, the Papp is the rate of passage across a membrane or cell layer, normalised by area and donor concentration. Lower therefore signals poor permeation. As usually defined, the EC50 is the concentration giving half of the maximal effect. Broadly, the melting point is the temperature, or range, at which the solid turns liquid.
